Source: patent US8637664B2, “Alkyl 4- [4- (5-oxo-2,3,5, 11a-tetrahydo-5H-pyrrolo [2, 1-c] [1,4] benzodiazepine-8-yloxy)-butyrylamino]-1H-pyrrole-2-carboxylate derivatives and related compounds for the treatment of a proliferative disease” (Spirogen SARL, priority 2005, dated 2014)

Experiments:
calf thymus DNA (CT-DNA) = test: DNA thermal denaturation (melting) studies; type: binding; conditions: CT-DNA 100 μM DNAp, compound 20 μM, 37 °C; for Induced ΔTm after incubation 0 hours: pH 7.00, 0 hours; for Induced ΔTm after incubation 4 hours: pH 7.00, 4 hours; for Induced ΔTm after incubation 18 hours: pH 7.00, 18 hours; for Induced ΔTm after incubation 72 hours: pH 7.00, 72 hours
Method: The PBD agents were subjected to DNA thermal melting (denaturation) studies (Gregson, S. J., et al., Journal of Medicinal Chemistry, 44(5), 737-748 (2001); Jones, G. B., et al., Anti-Cancer Drug Design, 5(3), 249-264 (1990); McConnaughie, A. W. and; Jenkins, T. C. Journal of Medicinal Chemistry, 38(18), 3488-3501 (1995)) using calf thymus DNA (CT-DNA, type-1, highly polymerized sodium salt; 42% G+C [Sigma]) at a fixed 100 μM (DNAp=50 μM bp) concentration, determined using an extinction coefficient of 6600 (M phosphate)^−1 cm^−1 at 260 nm (Manzini, G., et al., Nucleic Acids Research, 11(24), 8861-8876 (1983)). Solutions were prepared in pH 7.00±0.01 aqueous buffer containing 10 mM NaH2PO4/Na2HPO4 and 1 mM EDTA. Working solutions containing CT-DNA and the test compound (20 μM) were incubated at 37.0±0.1° C. for 0 to 18 hours using an external water bath. Samples were monitored at 260 nm using a Varian-Cary 400 Bio spectrophotometer fitted with a Peltier heating accessory. Heating was applied at a rate of 1° C./min in the 45 to 98° C. temperature range, with optical and temperature data sampling at 200 ms intervals. A separate experiment was carried out using buffer alone, and this baseline was subtracted from each DNA melting curve before data treatment. Optical data were imported into the Origin 5 program (MicroCal Inc., Northampton, Mass.) for analysis. DNA helix→coil transition temperatures (Tm) were determined at the midpoint of the normalized melting profiles using a published analytical procedure (Jones, G. B., et al., Anti-Cancer Drug Design, 5(3), 249-264 (1990)). Results are given in table 1 as the mean±standard deviation from at least three determinations. Ligand-induced alterations in DNA melting behaviour (ΔTm) are given by ΔTm=Tm(DNA+ligand)−Tm(DNA), where the Tm value determined for free CT-DNA is 67.82±0.06° C. (averaged from >90 runs). All PBD compounds were dissolved in HPLC-grade MeOH to give working solutions containing ≦0.6% v/v MeOH; Tm results were corrected for the effects of MeOH co-solvent by using a linear correction term.
The above method was also carried out on the compounds of example 2, with all compounds being incubated for up to 72 hours.

[1] = tested on: 170 bp sequence of the human Topo-IIa promoter; test: DNase I footprinting on Topo-IIa promoter (ICB1, ICB2 sites); type: binding; conditions: for Concentration at which DNA binding is observed, ICB1: ICB1 site; for Concentration at which DNA binding is observed, ICB2: ICB2 site
Method: In a similar manner to Example 4, the affinity and sequence selectivity of certain compounds of examples 1 and 2 was evaluated by standard DNA footprinting on a 170 bp sequence of the human Topo-IIa promoter, in accordance with the technique described in Martin, C., et al.
Selected results are shown in FIG. 9, wherein the concentrations of the lanes were 0, 1.6, 8, 40, 200, 1000, 5000 and 25000 nM in each case.
The footprinting results allowed the identification of compounds that could potentially disrupt transcription factor binding at the ICB1 and ICB2 sites. […] These compounds are detailed below in table 3, showing the concentrations (μM) at which the PBD-heterocycle conjugates bind at ICB1 and ICB2.

[2] = tested on: NF-Y binding at ICB1 of Topoisomerase IIα promoter; test: NF-Y gel shift assay (EMSA) at ICB1
[3] = tested on: NF-Y binding at ICB2 of Topoisomerase IIα promoter; test: NF-Y gel shift assay (EMSA) at ICB2
human c-myc oncogene = conditions: read-out: IC50 to arrest PCR of the c-myc gene; cited from earlier work
HIV-1 LTR = conditions: read-out: IC50 to arrest PCR of the HIV gene; cited from earlier work

Row | SMILES | Induced ΔTm after incubation 0 hours (calf thymus DNA (CT-DNA)) [°C] | Induced ΔTm after incubation 4 hours (calf thymus DNA (CT-DNA)) [°C] | Induced ΔTm after incubation 18 hours (calf thymus DNA (CT-DNA)) [°C] | Induced ΔTm after incubation 72 hours (calf thymus DNA (CT-DNA)) [°C] | Concentration at which DNA binding is observed, ICB1 [1] [µM] | Concentration at which DNA binding is observed, ICB2 [1] [µM] | Lowest concentration at which NF-Y binding inhibition was observed [2] | Lowest concentration at which NF-Y binding inhibition was observed [3] [µM] | IC50 (human c-myc oncogene) [µM] | IC50 (HIV-1 LTR) [µM]
1 | COC(=O)c1cc(NC(=O)c2cc(NC(=O)c3csc(NC(=O)CCCOc4cc5c(cc4OC)C(=O)N4CCC[C@H]4C=N5)n3)cn2C)cn1C [Compound 69] | 16.4 | 17.4 | 18.2 | 18.5 | 5 | 5 | 50 µM | 10 | – | –
2 | CCOC(=O)c1nc(NC(=O)c2nc(NC(=O)c3cc(NC(=O)CCCOc4cc5c(cc4OC)C(=O)N4CCC[C@H]4C=N5)cn3C)cn2C)cn1C [Compound 91] | 16.8 | 17.6 | 18.7 | 18.8 | 5 | 5 | did not inhibit NF-Y binding | 50 | – | –
3 | Cn1cc(NC(=O)c2cc(NC(=O)c3cc(NC=O)cn3C)cn2C)cc1C(=O)NCCC(=N)N [distamycin A] | – | – | – | – | – | – | – | – | 25 | 50
